Experimental data from ChEMBL document CHEMBL5357063, “Lysophosphatidylcholines Enriched with cis and trans Palmitoleic Acid Regulate Insulin Secretion via GPR119 Receptor” (ACS Med Chem Lett, 2024).
Activity calls are given as the source filed them. No cut-off for these calls is given here.

Experiments:
EndoC-betaH1 [1] = experiment: Cytotoxicity against human EndoC-betaH1 cells assessed as reduction in cell viability at 10 to 1000 uM measured after 24 to 72 hrs by PrestoBlue cell viability assay; assay type: toxicity, cell-based; conditions: endoc-betah1, 1000 µM, dose lower 10 µM, time lower 24 hrs, dose upper 1000 µM, time upper 72 hrs
EndoC-betaH1 [2] = experiment: Cytotoxicity against human EndoC-betaH1 cells assessed as reduction in cell viability at 1 uM measured after 24 to 72 hrs by PrestoBlue cell viability assay; assay type: toxicity, cell-based; conditions: endoc-betah1, 1 µM, time 24-72 hrs
EndoC-betaH1 [3] = experiment: Cytotoxicity against human EndoC-betaH1 cells assessed as reduction in cell viability at 5 uM measured after 48 to 72 hrs by PrestoBlue cell viability assay; assay type: toxicity, cell-based; conditions: endoc-betah1, 5 µM, time 48-72 hrs
EndoC-betaH1 [4] = experiment: Induction of insulin secretion in human EndoC-betaH1 cells at 5 uM incubated for 1 hr by ELISA method; assay type: functional, cell-based
EndoC-betaH1 [5] = experiment: Induction of glucose stimulated insulin secretion in human EndoC-betaH1 cells at 5 uM incubated for 1 hr in presence of GPR40 antagonist by ELISA method; assay type: functional, cell-based
EndoC-betaH1 [6] = experiment: Induction of glucose stimulated insulin secretion in human EndoC-betaH1 cells at 5 uM incubated for 1 hr in presence of GPR55 antagonist by ELISA method; assay type: functional, cell-based
EndoC-betaH1 [7] = experiment: Induction of glucose stimulated insulin secretion in human EndoC-betaH1 cells at 5 uM incubated for 1 hr in presence of GPR120 antagonist by ELISA method; assay type: functional, cell-based
EndoC-betaH1 [8] = experiment: Induction of glucose stimulated insulin secretion in human EndoC-betaH1 cells at 5 uM incubated for 1 hr in presence of GPR119 antagonist by ELISA method (reference value: 1.97 fmol/microg); assay type: functional
Cell membrane = experiment: Induction of cell membrane permeabilization in human EndoC-betaH1 cells at 10 uM measured upto 3.5 mins propidium iodide staining based fluorescence analysis; assay type: subcellular
EndoC-betaH1 [9] = experiment: Effect on intracellular calcium mobilization in human EndoC-betaH1 cells at 5 uM measured after 3 mins; assay type: functional, cell-based
EndoC-betaH1 [10] = experiment: Induction of cAMP production in human EndoC-betaH1 cells at 5 uM in presence of GPR40 antagonist by ELISA method; assay type: functional, cell-based
EndoC-betaH1 [11] = experiment: Induction of cAMP production in human EndoC-betaH1 cells at 5 uM in presence of GPR120 antagonist by ELISA method; assay type: functional, cell-based
[12] = Induction of cAMP production in human EndoC-betaH1 cells at 5 uM measured per mg of protein in presence of GPR119 antagonist by ELISA method; assay type: functional
EndoC-betaH1 [13] = experiment: Induction of glucose stimulated insulin secretion in human EndoC-betaH1 cells transfected with siRNA measured after 48 hrs in presence of GPR119 antagonist by ELISA method; assay type: functional, cell-based
EndoC-betaH1 [14] = experiment: Cytotoxicity against human EndoC-betaH1 cells assessed as reduction in cell viability at 10 uM measured after 24 to 72 hrs by PrestoBlue cell viability assay; assay type: toxicity, cell-based; conditions: endoc-betah1, 10 µM, time 24-72 hrs
EndoC-betaH1 [15] = experiment: Induction of glucose stimulated insulin secretion in human EndoC-betaH1 cells at 5 uM incubated for 1 hr in presence of GPR119 antagonist by ELISA method (reference value: 2.03 fmol/microg); assay type: functional
[16] = Induction of cAMP production in human EndoC-betaH1 cells at 5 uM by ELISA method; assay type: functional
EndoC-betaH1 [17] = experiment: Induction of cAMP production in human EndoC-betaH1 cells at 5 uM in presence of GPR55 antagonist by ELISA method; assay type: functional, cell-based
EndoC-betaH1 [18] = experiment: Induction of glucose stimulated insulin secretion in human EndoC-betaH1 cells at 1 uM incubated for 1 hr in presence of GPR119 antagonist by ELISA method; assay type: functional, cell-based
EndoC-betaH1 [19] = experiment: Induction of glucose stimulated insulin secretion in human EndoC-betaH1 cells at 100 nM incubated for 1 hr in presence of GPR119 antagonist by ELISA method; assay type: functional, cell-based
EndoC-betaH1 [20] = experiment: Induction of glucose stimulated insulin secretion in human EndoC-betaH1 cells at 5 uM incubated for 1 hr in presence of GPR119 antagonist by ELISA method; assay type: functional, cell-based
EndoC-betaH1 [21] = experiment: Induction of cAMP production in human EndoC-betaH1 cells at 5 uM in presence of GPR119 antagonist by ELISA method; assay type: functional, cell-based

Activity (Cell membrane)	SMILES	Activity (EndoC-betaH1 [4])	Activity (EndoC-betaH1 [5])	Activity (EndoC-betaH1 [6])	Activity (EndoC-betaH1 [7])	Activity (EndoC-betaH1 [9])	Activity (EndoC-betaH1 [10])	Activity (EndoC-betaH1 [11])	Activity [12] [pmol]	Activity (EndoC-betaH1 [13])	Activity (EndoC-betaH1 [17])	further results
inactive	CCCCCC/C=C/CCCCCCCC(=O)OC[C@@H](O)COP(=O)([O-])OCC[N+](C)(C)C	Active	Active	Active	Active	inactive	Active	Active	0.65	inactive		Activity (EndoC-betaH1 [1]): Toxic; Activity (EndoC-betaH1 [2]): Non-Toxic; Activity (EndoC-betaH1 [3]): Toxic; Activity (EndoC-betaH1 [8]): 1.34 fmol/µg
inactive	CCCCCC/C=C\CCCCCCCC(=O)OC[C@@H](O)COP(=O)([O-])OCC[N+](C)(C)C	Active	Active	Active	Active	inactive	Active	Active	0.8	inactive	inactive	Activity (EndoC-betaH1 [14]): Non-Toxic; Activity (EndoC-betaH1 [15]): 1.47 fmol/µg; Activity [16]: 1.87 pg/µg; Activity (EndoC-betaH1 [18]): Active
	CC(C)c1noc(C2CCN(c3ncnc(Nc4ccc(S(C)(=O)=O)cc4F)c3[N+](=O)[O-])CC2)n1											Activity (EndoC-betaH1 [19]): Active

SMILES	Activity (Cell membrane)	Activity (EndoC-betaH1 [4])	Activity (EndoC-betaH1 [5])	Activity (EndoC-betaH1 [6])	Activity (EndoC-betaH1 [7])	Activity (EndoC-betaH1 [9])	Activity (EndoC-betaH1 [10])	Activity (EndoC-betaH1 [11])	Activity [12] [pmol]	Activity (EndoC-betaH1 [13])	Activity (EndoC-betaH1 [17])	further results
CCCCCCCCCCCCCCCC(=O)OC[C@@H](O)COP(=O)([O-])OCC[N+](C)(C)C	inactive	Active	Active	Active	Active	inactive	Active	Active			Active	Activity (EndoC-betaH1 [20]): inactive; Activity (EndoC-betaH1 [21]): Active
